Our source for the IC50 values is patent publication US10703756B2, “Pyrrolo[2,3-D]pyrimidinyl, pyrrolo[2,3-B]pyrazinyl, pyrrolo[2,3-B]pyridinyl acrylamides and epoxides thereof” (Pfizer Inc., priority 2015, dated 2020).

Assay [1] deals with T1, JAK3 enzyme (Homo sapiens, UniProt P52333).
T1 sequence (P52333 1-1124): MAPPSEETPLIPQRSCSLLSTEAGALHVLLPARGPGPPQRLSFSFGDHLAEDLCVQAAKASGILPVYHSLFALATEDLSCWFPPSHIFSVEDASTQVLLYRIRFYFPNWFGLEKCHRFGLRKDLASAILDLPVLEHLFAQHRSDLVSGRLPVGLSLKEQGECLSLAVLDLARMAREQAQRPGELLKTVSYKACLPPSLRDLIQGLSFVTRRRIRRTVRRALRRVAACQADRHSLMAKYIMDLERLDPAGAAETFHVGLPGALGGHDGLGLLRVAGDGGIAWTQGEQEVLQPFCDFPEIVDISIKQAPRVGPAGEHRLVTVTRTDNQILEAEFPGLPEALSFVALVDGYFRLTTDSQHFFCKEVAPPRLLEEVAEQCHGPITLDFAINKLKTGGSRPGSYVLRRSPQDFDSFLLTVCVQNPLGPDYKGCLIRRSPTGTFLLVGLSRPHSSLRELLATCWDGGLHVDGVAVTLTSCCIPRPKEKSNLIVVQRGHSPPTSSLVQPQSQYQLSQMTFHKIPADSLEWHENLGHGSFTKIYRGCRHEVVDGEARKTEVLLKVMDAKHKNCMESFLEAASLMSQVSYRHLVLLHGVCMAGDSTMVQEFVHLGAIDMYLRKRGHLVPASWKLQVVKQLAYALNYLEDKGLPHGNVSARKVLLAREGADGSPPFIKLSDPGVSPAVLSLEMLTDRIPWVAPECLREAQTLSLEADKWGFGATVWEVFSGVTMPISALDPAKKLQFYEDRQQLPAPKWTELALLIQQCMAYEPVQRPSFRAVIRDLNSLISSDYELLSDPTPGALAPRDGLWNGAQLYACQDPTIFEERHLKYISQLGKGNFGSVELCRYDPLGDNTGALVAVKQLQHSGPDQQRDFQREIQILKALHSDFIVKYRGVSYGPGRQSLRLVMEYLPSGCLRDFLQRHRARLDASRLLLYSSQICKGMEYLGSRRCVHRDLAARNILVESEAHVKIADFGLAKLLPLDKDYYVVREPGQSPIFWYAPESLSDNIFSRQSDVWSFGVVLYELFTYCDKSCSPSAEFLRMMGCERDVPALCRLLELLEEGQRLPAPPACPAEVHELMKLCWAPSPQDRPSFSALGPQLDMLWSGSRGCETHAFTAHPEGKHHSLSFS
As to the kind of experiment: JAK Caliper Enzyme Assay at 4 μM ATP. The assay is classed as biochemical. In short, it runs like this:
(§1)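 Substrate conversion was kept within 20%-30% by adjusting enzyme and incubation for every preparation; peptide phosphorylation was quantified via on-chip mobility shift.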

Assay [2] addresses T1, JAK3 enzyme. As to the kind of experiment: JAK Caliper Enzyme Assay at 1 mM ATP. The assay is classed as biochemical. The method, boiled down:
as §1

Assay [3] concerns IL-15 induced P-STAT5 in human PBMC. As to the kind of experiment: PBMC IL-15 Induced P-STAT5. The class given is cell-based. To be noted: human PBMC, IL-15 final 41 ng/mL; read-out: PBMC IL15_pSTAT5_IC50. In short, it runs like this:
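Flow cytometry gated on total lymphocytes measured STAT5 staining (Alexa Fluor 647 antibody, overnight, 4 °C) in fixed, methanol-permeabilised human PBMC. Cells had received compound for 15 min at 37 °C (0.2% DMSO final), followed by 41 ng/mL final human IL-15 for 15 min.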

pIC50: −log10 of the molar value.

`C=CC(=O)N1CCN(c2cnc3[nH]cc(C(=O)N[C@@H](CC)COC)c3n2)CC1(C)C` [Example 135, 2-(4-acryloyl-3,3-dimethylpiperazin-1-yl)-N-[(2S)-1-methoxybutan-2-yl]-5H-pyrrolo[2,3-b]pyrazine-7-carboxamide]: the pIC50 is 8.83 in assay [1], 6.77 in assay [2] and 6.12 in assay [3].

Turning to `C=CC(=O)N1CCC(Oc2cnc3[nH]cc(C(=O)NCC4CC(F)(F)C4)c3n2)CC1` [Example 197, 2-[(1-acryloylpiperidin-4-yl)oxy]-N-[(3,3-difluorocyclobutyl)methyl]-5H-pyrrolo[2,3-b]pyrazine-7-carboxamide], the pIC50 is 9.10 in assay [1], 6.83 in assay [2] and 6.15 in assay [3].

Consider `C=CC(=O)N1CCC(Nc2cnc3[nH]cc(C(=O)NCc4nc5cc(F)ccc5o4)c3n2)CC1` [Example 177, 2-[(1-acryloylpiperidin-4-yl)amino]-N-[(5-fluoro-1,3-benzoxazol-2-yl)methyl]-5H-pyrrolo[2,3-b]pyrazine-7-carboxamide], for which the results for the pIC50 in assay [1], in assay [2] and in assay [3] were 9.20, 7.60 and 6.38, respectively.

Consider `C=CC(=O)N1C[C@H](CC#N)C[C@H](Nc2ncnc3[nH]ccc23)C1` (single isomer, unassigned) [Example 107], for which the pIC50 in assay [1] was 7.93; in assay [2] it was 5.91; in assay [3] it was 5.08.

Consider `C=CC(=O)N1CCC(Nc2cnc3[nH]cc(C(=O)NCc4cnn(-c5cccc(F)c5)c4)c3n2)CC1` [Example 192, 2-[(1-acryloylpiperidin-4-yl)amino]-N-{[1-(3-fluorophenyl)-1H-pyrazol-4-yl]methyl}-5H-pyrrolo[2,3-b]pyrazine-7-carboxamide], for which the pIC50 in assay [1] was 9.20; in assay [2] it was 7.54; in assay [3] it was 6.04.

As for `C=CC(=O)N1CC[C@@H](Nc2cnc3[nH]cc(C(=O)NC[C@H](C)CC(F)(F)F)c3n2)[C@@H](OC)C1` [Example 323, 2-{[(3S,4R)-1-acryloyl-3-methoxypiperidin-4-yl]amino}-N-[(2R)-4,4,4-trifluoro-2-methylbutyl]-5H-pyrrolo[2,3-b]pyrazine-7-carboxamide], the pIC50 in assay [1] was 9.41; in assay [2], 7.16; in assay [3], 6.37.

Turning to `C=CC(=O)N1CCC(Oc2cnc3[nH]cc(C(=O)NC(CC)C4(O)CCC4)c3n2)CC1` (racemic) [Example 213, Racemic-2-[(1-acryloylpiperidin-4-yl)oxy]-N-[1-(1-hydroxycyclobutyl)propyl]-5H-pyrrolo[2,3-b]pyrazine-7-carboxamide], the pIC50 in assay [1] is 8.51; in assay [2], 6.46; in assay [3] it was 5.76.

For `C=CC(=O)N1CCC(Oc2cnc3[nH]cc(C(=O)NC4CC(F)(F)C4)c3n2)CC1` [Example 212, 2-[(1-acryloylpiperidin-4-yl)oxy]-N-(3,3-difluorocyclobutyl)-5H-pyrrolo[2,3-b]pyrazine-7-carboxamide], the figures for the pIC50 in assay [1], in assay [2] and in assay [3] were 9.04, 6.48 and 5.87, respectively.

Regarding `C=CC(=O)N1CCC(Nc2cnc3[nH]cc(C(=O)NCc4ccc(-n5cccn5)cc4)c3n2)CC1` [Example 183, 2-[(1-acryloylpiperidin-4-yl)amino]-N-[4-(1H-pyrazol-1-yl)benzyl]-5H-pyrrolo[2,3-b]pyrazine-7-carboxamide], the pIC50 was 8.99 in assay [1], 7.39 in assay [2] and 5.80 in assay [3].

Take `C=CC(=O)N1C[C@@H](Nc2ncnc3[nH]ccc23)C[C@@H](C(=O)N(C)C)C1` (racemic) [Example 94]: the pIC50 in assay [1] was 9.10; in assay [2] it was 6.83; in assay [3], 5.97.

In the case of `C=CC(=O)N1CC[C@@H](Nc2cnc3[nH]cc(C(=O)NCC4(O)CCC(F)(F)CC4)c3n2)[C@@H](OC)C1` [Example 268], the values for the pIC50 in assay [1], in assay [2] and in assay [3] were 8.84, 6.48 and below 5.00, respectively.

For the compound `C=CC(=O)N1CCC(Nc2cnc3[nH]cc(C(=O)NCCCC(F)(F)F)c3n2)CC1C` (racemic) [Example 282, Racemic-2-[(1-acryloyl-2-methylpiperidin-4-yl)amino]-N-(4,4,4-trifluorobulyl)-5H-pyrrolo[2,3-b]pyrazine-7-carboxamide], the pIC50 in assay [1] was 8.61; in assay [2] it was 6.44; in assay [3] it was 5.51.

Consider `C=CC(=O)N1CCC(C)(Nc2cnc3[nH]cc(C(=O)N[C@H](C)COC)c3n2)CC1` [Example 335, 2-[(1-acryloyl-4-methylpiperidin-4-yl)amino]-N-[(2R)-1-methoxypropan-2-yl]-5H-pyrrolo[2,3-b]pyrazine-7-carboxamide], for which the values for the pIC50 in assay [1], in assay [2] and in assay [3] were 9.58, 7.24 and 6.07, respectively.

For `C=CC(=O)N1C[C@@H](Nc2ncnc3[nH]ccc23)CC[C@H]1CNC(C)=O` (single isomer, unassigned) [Example 90], the pIC50 was 8.98 in assay [1], 6.82 in assay [2] and 5.49 in assay [3].

For the compound `C=CC(=O)N1CCN(c2cnc3[nH]cc(C(=O)N[C@@H](C)C(=O)OC)c3n2)CC1(C)C` [Example 158, Methyl N-{[2-(4-acryloyl-3,3-dimethylpiperazin-1-yl)-5H-pyrrolo[2,3-b]pyrazin-7-yl]carbonyl}-L-alaninate], the pIC50 is 8.51 in assay [1], 6.44 in assay [2] and 6.05 in assay [3].

For the compound `C=CC(=O)N1CCN(c2cnc3[nH]cc(C(=O)NCCOC)c3n2)CC1(C)C` [Example 265, 2-(4-acryloyl-3,3-dimethylpiperazin-1-yl)-N-(2-methoxyethyl)-5H-pyrrolo[2,3-b]pyrazine-7-carboxamide], the pIC50 was 8.33 in assay [1], 6.13 in assay [2] and 5.69 in assay [3].

As for `C=CC(=O)N1CCN(c2cnc3[nH]cc(C(=O)NCC4CC(F)(F)C4)c3n2)CC1` [Example 276, 2-(4-acryloylpiperazin-1-yl)-N-[(3,3-difluorocyclobutyl)methyl]-5H-pyrrolo[2,3-b]pyrazine-7-carboxamide], the pIC50 was 9.32 in assay [1], 6.95 in assay [2] and 6.21 in assay [3].

As for `C=CC(=O)N1CCC(Oc2cnc3[nH]cc(C(=O)NCCCC#N)c3n2)CC1` [Example 218, 2-[(1-acryloylpiperidin-4-yl)oxy]-N-(3-cyanopropyl)-5H-pyrrolo[2,3-b]pyrazine-7-carboxamide], the values for the pIC50 in assay [1], in assay [2] and in assay [3] were 9.20, 6.98 and 5.92, respectively.

On to `C=CC(=O)N1CCN(c2cnc3[nH]cc(C(=O)NCC(C)(F)F)c3n2)CC1(C)C` [Example 275, 2-(4-acryloyl-3,3-dimethylpiperazin-1-yl)-N-(2,2-difluoropropyl)-5H-pyrrolo[2,3-b]pyrazine-7-carboxamide], for which the figures for the pIC50 in assay [1], in assay [2] and in assay [3] were 8.50, 6.38 and 5.99, respectively.

As to `C[C@H]1CC[C@@H](Nc2ncnc3[nH]ccc23)CN1C(=O)C1CO1` (mixture of isomers) [Example 132, Racemic-[(2S,5R)-2-methyl-5-(7H-pyrrolo[2,3-d]pyrimidin-4-ylamino)piperidin-1-yl](oxiran-2-yl)methanone], the values for the pIC50 in assay [1], in assay [2] and in assay [3] were 8.78, 6.59 and 6.28, respectively.

In the case of `C=CC(=O)N1CCC(Nc2cnc3[nH]cc(C(=O)NCCc4nc5ccc(F)c(F)c5o4)c3n2)CC1` [Example 182, 2-[(1-acryloylpiperidin-4-yl)amino]-N-[2-(6,7-difluoro-1,3-benzoxazol-2-yl)ethyl]-5H-pyrrolo[2,3-b]pyrazine-7-carboxamide], the values for the pIC50 in assay [1], in assay [2] and in assay [3] were 8.61, 6.78 and below 5.00, respectively.
